Laboratory results as given in ChEMBL document CHEMBL1124646, “Sulfur-containing 1,3-dialkylxanthine derivatives as selective antagonists at A1-adenosine receptors” (J Med Chem, 1989).
Values belong to the compound of their own block, whether it stands above or below them.

Columns and labels:
Adenosine A2 receptor [1] = biological target: T1, Adenosine A2 receptor (Rattus norvegicus, UniProt P29276+P30543)
Description: Inhibition of binding of [3H]5'-(N-ethylcarbamoyl)-adenosine to adenosine A2 receptor in rat striatal membranes

Adenosine receptor A1 [2] = biological target: T2, Adenosine receptor A1 (Rattus norvegicus, UniProt P25099); assay: Inhibition of 1 nM [3H]N-6-(phenylisopropyl)adenosine binding to adenosine A1 receptors in rat cortical membranes; assay type: cell membranes, Membrane
T2 sequence (P25099 whole entry): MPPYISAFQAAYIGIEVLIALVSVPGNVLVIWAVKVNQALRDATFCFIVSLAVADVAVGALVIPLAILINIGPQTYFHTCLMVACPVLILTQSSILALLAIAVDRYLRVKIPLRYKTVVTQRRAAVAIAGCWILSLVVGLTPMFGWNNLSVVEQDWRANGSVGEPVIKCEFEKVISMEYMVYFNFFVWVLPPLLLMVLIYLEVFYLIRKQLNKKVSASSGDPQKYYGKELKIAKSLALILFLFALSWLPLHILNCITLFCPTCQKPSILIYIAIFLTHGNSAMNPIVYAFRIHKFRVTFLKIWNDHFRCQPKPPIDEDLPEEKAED

[3] = biological target: Adenosine receptors; A1 & A2 (Rattus norvegicus) (UniProt P29276+P25099+P30543); assay: Inhibitory selectivity for A2 receptor in rat striatal membranes and A1 receptor in rat cortical membranes; assay type: cell membranes; settings: Striatum, Membrane
Adenosine A2 receptor [4] = biological target: T1, Adenosine A2 receptor; assay type: cell membranes, Membrane
Adenosine receptor A1 [5] = biological target: T2, Adenosine receptor A1; assay: Inhibition of binding of 1 nM [3H]N-6-(phenylisopropyl)adenosine to adenosine A1 receptor in rat cortical membranes; assay type: cell membranes, Membrane
[6] = biological target: Adenosine receptor A1 (Rattus norvegicus); assay: Inhibitory selectivity for A1 receptor in rat striatal membranes and Adenosine A1 receptor in rat cortical membranes
[7] = biological target: Adenosine receptors; A1 & A2 (Rattus norvegicus, UniProt P29276+P25099+P30543); assay: Inhibitory selectivity for A1 receptor in rat striatal membranes and Adenosine A1 receptor in rat cortical membranes; assay type: cell membranes, Striatum, Membrane
Adenosine receptor A1 [8] = biological target: T2, Adenosine receptor A1; assay: Inhibition of 1 nM [3H]N-6-(phenylisopropyl)adenosine binding to A1 receptors in rat cortical membranes; assay type: cell membranes, Membrane

SMILES: CCCn1c(=O)c2nc(-c3ccc(OCC(=O)N(C)CCN(C)C)cc3)[nH]c2n(CCC)c1=S
Ki (Adenosine A2 receptor [1]): 24.5 nM

SMILES: CCCn1c(=O)c2nc(-c3ccc(OCC(=O)NCCNC(=O)C(N)CCCCNC(=O)OCc4ccccc4)cc3)[nH]c2n(CCC)c1=S.O=C(O)C(F)(F)F (stereo not drawn)
Ki (Adenosine receptor A1 [2]): 6.8 nM | Ratio [3]: 36 | Ki (Adenosine A2 receptor [4]): 322 nM

SMILES: CCCn1c(=O)c2nc(-c3ccc(OCC(=O)NCCN(C)C)cc3)[nH]c2n(CCC)c1=O
Ki (Adenosine receptor A1 [5]): 2.8 nM | Ki (Adenosine A2 receptor [1]): 5.03 nM

SMILES: CCCn1c(=O)c2nc(-c3ccc(OCC(=O)NCCN(C)C)cc3)[nH]c2n(CCC)c1=S
Ki (Adenosine A2 receptor [1]): 27.9 nM

SMILES: CCCn1c(=O)c2nc(-c3ccc(OCC(=O)OCC)cc3)[nH]c2n(CCC)c1=O
Ki (Adenosine A2 receptor [1]): > 5000 nM

SMILES: CCCn1c(=O)c2nc(-c3ccc(OCC(=O)NCCNC(=O)C(N)CCCCNC(=O)OCc4ccccc4)cc3)[nH]c2n(CCC)c1=O.O=C(O)C(F)(F)F (stereo not drawn)
Ki (Adenosine receptor A1 [2]): 6.4 nM | Ratio [3]: 30 | Ki (Adenosine A2 receptor [4]): 191 nM

SMILES: Cn1c(=S)c2nc(C3CCCC3)[nH]c2n(C)c1=S
Ratio [3]: 285 | Ki (Adenosine A2 receptor [4]): 11500 nM

SMILES: CCCn1c(=O)c2nc(-c3ccc(OCC(=O)NCCNC(=O)CCCCCCC(=O)ON4C(=O)CCC4=O)cc3)[nH]c2n(CCC)c1=S
Ki [6]: 33.5 nM

SMILES: CCCn1c(=O)c2[nH]c(C3CCCC3)nc2n(CCC)c1=S
Ki (Adenosine A2 receptor [1]): 314 nM

SMILES: Br.Br.CCCn1c(=O)c2nc(-c3ccc(OCC(=O)NCCNC(=O)C(N)CCCCN)cc3)[nH]c2n(CCC)c1=O (stereo not drawn)
Ki (Adenosine receptor A1 [5]): 0.87 nM | Ki (Adenosine A2 receptor [1]): 180 nM

SMILES: CCn1c(=S)c2nc(-c3ccccc3)[nH]c2n(CC)c1=O
Ki (Adenosine A2 receptor [1]): 3510 nM

SMILES: CCCn1c(=O)c2nc(-c3ccc(OCC(=O)O)cc3)[nH]c2n(CCC)c1=S
Ki (Adenosine A2 receptor [1]): 315 nM

SMILES: CCCn1c(=S)c2nc(C3CCCC3)[nH]c2n(CCC)c1=S
Ratio [3]: 572 | Ki (Adenosine A2 receptor [4]): 2780 nM

SMILES: CCCn1c(=O)c2nc(-c3ccc(OCC(=O)NCCNC(=O)Cc4cccs4)cc3)[nH]c2n(CCC)c1=O
Ki (Adenosine A2 receptor [1]): 147 nM

SMILES: CCCn1c(=O)c2nc(-c3ccc(OCC(=O)NCCNC(=O)C(CCCCNC(=O)OCc4ccccc4)NC(=O)OC(C)(C)C)cc3)[nH]c2n(CCC)c1=S (stereo not drawn)
Ki (Adenosine receptor A1 [5]): 84 nM | Ki (Adenosine A2 receptor [1]): 870 nM

SMILES: Br.Br.CCCn1c(=O)c2nc(-c3ccc(OCC(=O)NCCNC(=O)C(N)CCCCN)cc3)[nH]c2n(CCC)c1=S (stereo not drawn)
Ki (Adenosine receptor A1 [5]): 13 nM | Ki (Adenosine A2 receptor [1]): 46.8 nM

SMILES: CCCn1c(=O)c2nc(-c3ccc(OCC(=O)NCCNC(=O)C(N)Cc4cccs4)cc3)[nH]c2n(CCC)c1=O.O=C(O)C(F)(F)F (stereo not drawn)
Ki [7]: 1.3 nM

SMILES: CCCn1c(=O)c2[nH]c(-c3ccc(OCC(=O)NCCNC(=O)[C@@H](Cc4cccs4)NC(=O)OC(C)(C)C)cc3)nc2n(CCC)c1=O
Ki (Adenosine receptor A1 [8]): 17 nM

SMILES: CCCn1c(=O)c2nc(-c3ccc(OCC(=O)NCCNC(=O)CCCCCCC(=O)NCc4cccs4)cc3)[nH]c2n(CCC)c1=O
Ratio [3]: 85 | Ki (Adenosine A2 receptor [4]): 630 nM

SMILES: CCCn1c(=O)c2[nH]c(-c3ccc(OCC(=O)NCCNC(=O)C(CCCCNC(=O)OCc4ccccc4)NC(=O)OC(C)(C)C)cc3)nc2n(CCC)c1=O (stereo not drawn)
Ki (Adenosine receptor A1 [8]): 12 nM

SMILES: Cn1c(=O)c2nc(C3CCCC3)[nH]c2n(C)c1=S
Ki (Adenosine receptor A1 [2]): 10.2 nM | Ratio [3]: 136 | Ki (Adenosine A2 receptor [4]): 1390 nM

SMILES: CCCn1c(=O)c2nc(-c3ccc(OCC(=O)NCCNC(=O)Cc4ccc(I)s4)cc3)[nH]c2n(CCC)c1=O
Ratio [3]: 10.3 | Ki (Adenosine A2 receptor [4]): 116 nM

SMILES: CCCn1c(=O)c2nc(-c3ccc(OCC(=O)NCCN)cc3)[nH]c2n(CCC)c1=S
Ki (Adenosine A2 receptor [1]): 26.3 nM

SMILES: CCCn1c(=O)c2[nH]c(-c3ccc(OCC(=O)NCCNC)cc3)nc2n(CCC)c1=O
Ki (Adenosine receptor A1 [5]): 15.1 nM

SMILES: CCCn1c(=O)c2nc(-c3ccc(OCC(=O)OCC)cc3)[nH]c2n(CCC)c1=S
Ki (Adenosine A2 receptor [1]): > 5000 nM

SMILES: CCCn1c(=S)c2nc(C3CCCC3)[nH]c2n(CCC)c1=O
Ki (Adenosine A2 receptor [1]): 3360 nM

More lines, now with the values ahead:

Ki (Adenosine A2 receptor [1]): 1740 nM
SMILES: Cn1c(=O)c2nc(-c3cccs3)[nH]c2n(C)c1=S

Ki (Adenosine A2 receptor [1]): > 5000 nM
SMILES: CCCn1c(=O)c2nc(-c3cccs3)[nH]c2n(CCC)c1=S

Ki (Adenosine receptor A1 [5]): 38 nM | Ki (Adenosine A2 receptor [1]): > 7000 nM
SMILES: Cn1c(=O)c2nc(-c3ccccc3)[nH]c2n(C)c1=S

Ki (Adenosine A2 receptor [1]): 121 nM
SMILES: CCCn1c(=O)c2nc(-c3ccsc3)[nH]c2n(CCC)c1=O

Ratio [3]: 44.4 | Ki (Adenosine A2 receptor [4]): 8980 nM
SMILES: Cn1c(=S)c2nc(C3CCCC3)[nH]c2n(C)c1=O

Ki (Adenosine A2 receptor [1]): 841 nM
SMILES: Cn1c(=O)c2nc(-c3ccsc3)[nH]c2n(C)c1=O

Ki (Adenosine A2 receptor [1]): 11300 nM
SMILES: Cn1c(=S)c2nc(-c3ccccc3)[nH]c2n(C)c1=O

Ki (Adenosine receptor A1 [5]): 37 nM | Ki (Adenosine A2 receptor [1]): 640 nM
SMILES: CCCn1c(=O)c2nc(-c3ccco3)[nH]c2n(CCC)c1=O

Ki (Adenosine receptor A1 [5]): 182 nM | Ki (Adenosine A2 receptor [1]): 4450 nM
SMILES: Cn1c(=O)c2nc(-c3ccco3)[nH]c2n(C)c1=S

Ki (Adenosine receptor A1 [5]): 350 nM | Ki (Adenosine A2 receptor [1]): 2780 nM
SMILES: Cn1c(=O)c2nc(-c3ccco3)[nH]c2n(C)c1=O

Ki (Adenosine receptor A1 [5]): 16.1 nM | Ki (Adenosine A2 receptor [1]): 422 nM
SMILES: CCCn1c(=O)c2nc(-c3ccccc3)[nH]c2n(CCC)c1=S

Ki (Adenosine receptor A1 [5]): 32 nM | Ki (Adenosine A2 receptor [1]): 594 nM
SMILES: CCCn1c(=O)c2nc(-c3ccco3)[nH]c2n(CCC)c1=S

Ki (Adenosine A2 receptor [1]): 381 nM
SMILES: CCCn1c(=O)c2nc(-c3cccs3)[nH]c2n(CCC)c1=O

Ki (Adenosine A2 receptor [1]): 1630 nM
SMILES: Cn1c(=O)c2nc(-c3cccs3)[nH]c2n(C)c1=O

Ki (Adenosine receptor A1 [5]): 72.4 nM | Ki (Adenosine A2 receptor [1]): 984 nM
SMILES: Cn1c(=O)c2nc(-c3ccoc3)[nH]c2n(C)c1=O
